# Assay results reported in PMC6737615, “Complete oxidation of hydroxymethylfurfural to furandicarboxylic acid by aryl-alcohol oxidase” (Biotechnology for Biofuels, 2019).
# Experiments:
# [1] = target: T1, aryl-alcohol oxidase (AAO) (Pleurotus eryngii, UniProt O94219); assay: biochemical
# T1 sequence (O94219 28-593): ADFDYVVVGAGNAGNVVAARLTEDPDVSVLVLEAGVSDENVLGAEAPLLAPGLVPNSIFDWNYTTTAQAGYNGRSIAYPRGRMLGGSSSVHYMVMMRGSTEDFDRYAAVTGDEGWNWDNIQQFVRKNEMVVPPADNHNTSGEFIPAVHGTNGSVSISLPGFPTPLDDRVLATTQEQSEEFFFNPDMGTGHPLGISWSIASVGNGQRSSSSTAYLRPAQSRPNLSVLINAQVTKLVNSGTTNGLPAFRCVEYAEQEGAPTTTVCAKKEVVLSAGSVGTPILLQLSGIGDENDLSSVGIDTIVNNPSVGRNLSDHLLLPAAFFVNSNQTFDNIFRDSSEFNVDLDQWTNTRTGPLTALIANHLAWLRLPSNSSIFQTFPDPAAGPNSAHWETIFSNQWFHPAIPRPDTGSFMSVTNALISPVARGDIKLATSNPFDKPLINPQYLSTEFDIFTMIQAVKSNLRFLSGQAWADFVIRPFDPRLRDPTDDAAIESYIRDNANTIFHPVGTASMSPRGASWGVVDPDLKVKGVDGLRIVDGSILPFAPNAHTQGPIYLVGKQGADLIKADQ
# [2] = target: aryl-alcohol oxidase (AAO) (Pleurotus eryngii, UniProt O94219, F424Y); assay: conversion to FDCA by purified variant with catalase, HPLC; type: biochemical
# From the text: (§1) conversion to FDCA by purified variant with catalase, HPLC on aryl-alcohol oxidase (AAO) | production of FDCA from HMF by native AAO, and its F501H, F397Y, and I500M/F501 W variants
# [3] = target: aryl-alcohol oxidase (AAO) (Pleurotus eryngii, UniProt O94219, I527M/F528W); assay: as above; type: biochemical
# From the text: as §1
# [4] = target: aryl-alcohol oxidase (AAO) (Pleurotus eryngii, UniProt O94219, F528H); assay: as above; type: biochemical
# From the text: as §1
# [5] = target: T1, aryl-alcohol oxidase (AAO); assay: HPLC and 1H-NMR of oxidation by purified AAO; type: biochemical; parameters: mature AAO cDNA (GenBank AF064069) expressed in E. coli
# [6] = target: T1, aryl-alcohol oxidase (AAO); assay: turnover at saturating aldehyde, spectrophotometric acid formation; type: biochemical; parameters: mature AAO cDNA (GenBank AF064069) expressed in E. coli
# Description: turnover at saturating aldehyde, spectrophotometric acid formation on aryl-alcohol oxidase (AAO) | Turnovers for aldehyde oxidation were calculated at saturating concentration of p-anisaldehyde
smiles,measurement,setting,value
OO [H2O2],IC50,[1],~158 µM
O=Cc1ccc(CO)o1 [HMF],% conversion,[2],75.7 % conversion
same,% conversion,[3],52.8 % conversion
same,% conversion,[4],97.9 % conversion
same,HPLC and 1H-NMR of oxidation by purified AAO,[5],2.54 h⁻¹
COc1ccc(C=O)cc1 [p-anisaldehyde],p-Anisaldehyde / kcat,[6],0.122 s⁻¹
